In ChEMBL document CHEMBL6127034, “Design, synthesis and biological evaluation of a novel PAK1 degrader for the treatment of triple negative breast cancer” (Bioorg Med Chem, 2024):

Legend:
[1] = target: T1, Protein cereblon/Serine/threonine-protein kinase PAK 1 (Homo sapiens) (UniProt Q13153+Q96SW2); assay: PROTAC activity at CRBN/PAK1 in human MDA-MB-231 cells assessed as induction of protein degradation at 2.5 uM incubated for 48 hrs by Western blot analysis relative to control; assay type: cell-based
[2] = target: T1, Protein cereblon/Serine/threonine-protein kinase PAK 1 (Homo sapiens); assay: PROTAC activity at CRBN/PAK1 in human MDA-MB-231 cells assessed as induction of protein degradation at 0.1 uM incubated for 48 hrs by Western blot analysis relative to control; assay type: cell-based
MDA-MB-231 = assay: Antiproliferative activity against human MDA-MB-231 cells incubated for 48 hrs by MTT assay; assay type: functional, cell-based; conditions: MDA-MB-231, 48 h
[3] = target: T1, Protein cereblon/Serine/threonine-protein kinase PAK 1 (Homo sapiens); assay: PROTAC activity at CRBN/PAK1 in human MDA-MB-231 cells assessed as fold change in protein expression at 2.5 uM incubated for 48 hrs by Western blot analysis relative to control; assay type: cell-based
[4] = target: T2, von Hippel-Lindau disease tumor suppressor/Serine/threonine-protein kinase PAK 1 (Homo sapiens, UniProt Q13153+P40337); assay: PROTAC activity at VHL/PAK1 in human MDA-MB-231 cells assessed as induction of protein degradation at 2.5 uM incubated for 48 hrs by Western blot analysis relative to control; assay type: cell-based
[5] = target: T2, von Hippel-Lindau disease tumor suppressor/Serine/threonine-protein kinase PAK 1; assay: PROTAC activity at VHL/PAK1 in human MDA-MB-231 cells assessed as fold change in protein expression at 2.5 uM incubated for 48 hrs by Western blot analysis relative to control; assay type: cell-based
[6] = target: T2, von Hippel-Lindau disease tumor suppressor/Serine/threonine-protein kinase PAK 1; assay: PROTAC activity at VHL/PAK1 in human MDA-MB-231 cells assessed as induction of protein degradation at 0.1 uM incubated for 48 hrs by Western blot analysis relative to control; assay type: cell-based

T2 sequence (Q13153 2-545 limits assumed): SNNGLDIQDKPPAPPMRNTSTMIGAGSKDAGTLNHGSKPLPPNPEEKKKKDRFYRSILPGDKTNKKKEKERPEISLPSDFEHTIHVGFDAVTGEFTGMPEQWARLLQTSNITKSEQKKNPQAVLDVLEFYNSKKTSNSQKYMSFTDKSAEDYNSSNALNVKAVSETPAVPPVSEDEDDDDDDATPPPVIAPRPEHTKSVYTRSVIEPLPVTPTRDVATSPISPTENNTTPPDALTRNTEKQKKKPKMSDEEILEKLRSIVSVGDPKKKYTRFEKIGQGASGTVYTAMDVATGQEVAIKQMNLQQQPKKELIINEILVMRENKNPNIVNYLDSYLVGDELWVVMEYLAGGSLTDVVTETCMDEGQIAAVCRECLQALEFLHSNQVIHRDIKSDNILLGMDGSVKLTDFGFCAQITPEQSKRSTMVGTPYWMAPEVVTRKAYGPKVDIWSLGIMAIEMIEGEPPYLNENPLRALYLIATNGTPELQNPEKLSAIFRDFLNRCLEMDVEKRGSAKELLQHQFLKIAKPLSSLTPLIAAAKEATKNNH
T2 sequence (P40337 whole entry partner): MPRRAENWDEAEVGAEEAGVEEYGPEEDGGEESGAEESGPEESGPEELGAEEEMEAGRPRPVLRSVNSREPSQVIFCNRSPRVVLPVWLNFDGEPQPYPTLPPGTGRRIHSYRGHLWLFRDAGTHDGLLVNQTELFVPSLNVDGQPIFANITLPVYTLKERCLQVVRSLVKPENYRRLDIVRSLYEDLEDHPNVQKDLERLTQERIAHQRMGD
T1 sequence (Q13153 whole entry, looked up): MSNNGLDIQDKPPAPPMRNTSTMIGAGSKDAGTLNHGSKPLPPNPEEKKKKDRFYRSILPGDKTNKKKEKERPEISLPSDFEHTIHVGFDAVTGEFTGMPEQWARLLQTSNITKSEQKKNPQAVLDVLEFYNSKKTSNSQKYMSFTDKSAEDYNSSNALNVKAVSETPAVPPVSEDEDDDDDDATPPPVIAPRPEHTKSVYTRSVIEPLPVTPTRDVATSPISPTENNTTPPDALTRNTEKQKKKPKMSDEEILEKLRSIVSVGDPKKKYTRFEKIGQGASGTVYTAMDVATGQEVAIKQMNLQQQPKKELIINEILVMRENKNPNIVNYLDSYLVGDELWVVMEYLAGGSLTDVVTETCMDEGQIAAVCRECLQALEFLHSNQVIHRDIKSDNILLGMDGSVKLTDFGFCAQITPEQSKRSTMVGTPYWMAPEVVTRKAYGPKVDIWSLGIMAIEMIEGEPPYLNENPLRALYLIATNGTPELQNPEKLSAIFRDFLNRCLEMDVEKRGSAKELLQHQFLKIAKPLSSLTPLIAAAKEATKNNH
T1 sequence (Q96SW2 whole entry, looked up): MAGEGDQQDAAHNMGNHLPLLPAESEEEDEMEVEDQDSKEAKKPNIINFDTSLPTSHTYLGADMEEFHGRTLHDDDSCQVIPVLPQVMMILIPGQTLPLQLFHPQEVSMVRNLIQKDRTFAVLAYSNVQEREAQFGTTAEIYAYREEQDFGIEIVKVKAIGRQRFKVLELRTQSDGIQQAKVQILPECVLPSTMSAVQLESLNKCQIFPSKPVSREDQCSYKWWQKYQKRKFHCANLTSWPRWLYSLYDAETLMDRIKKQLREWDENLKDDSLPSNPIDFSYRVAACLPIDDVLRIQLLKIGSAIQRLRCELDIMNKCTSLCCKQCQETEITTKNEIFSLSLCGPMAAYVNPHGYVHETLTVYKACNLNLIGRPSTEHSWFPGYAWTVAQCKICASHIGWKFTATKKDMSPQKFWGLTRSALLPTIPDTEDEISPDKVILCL

SMILES | Activity [1] | Activity [2] | IC50 (MDA-MB-231) | fold change (FC) [3] | Activity [4] | fold change (FC) [5] | Activity [6]
CNc1ncc2cc(-c3ccc(Cl)cc3Cl)c(=O)n(CCCCCCCn3cc(CNc4cccc5c4C(=O)N(C4CCC(=O)NC4=O)C5=O)nn3)c2n1 (stereo not given) | 45.5% | 23.1% | 18.9 µM | 0.545 | – | – | –
Cc1ncsc1-c1ccc([C@H](C)NC(=O)[C@@H]2C[C@@H](O)CN2C(=O)[C@@H](NC(=O)CCc2cn(CCOCCOCCOCCn3c(=O)c(-c4ccc(Cl)cc4Cl)cc4cnc(NC5CC5)nc43)nn2)C(C)(C)C)cc1 | – | – | > 50 µM | – | 7.1% | 0.929 | –
O=C1CCC(N2C(=O)c3cccc(NCc4cn(CCOCCOCCn5c(=O)c(-c6ccc(Cl)cc6Cl)cc6cnc(NC7CC7)nc65)nn4)c3C2=O)C(=O)N1 (stereo not given) | 23.9% | – | > 50 µM | 1.05 | – | – | –
O=C1CCC(N2C(=O)c3cccc(NCc4cn(CCCCCn5c(=O)c(-c6ccc(Cl)cc6Cl)cc6cnc(NC7CC7)nc65)nn4)c3C2=O)C(=O)N1 (stereo not given) | 19.2% | – | > 50 µM | 0.809 | – | – | –
Cc1ncsc1-c1ccc([C@H](C)NC(=O)[C@@H]2C[C@@H](O)CN2C(=O)[C@@H](NC(=O)CCCc2cn(CCCCCCn3c(=O)c(-c4ccc(Cl)cc4Cl)cc4cnc(NC5CC5)nc43)nn2)C(C)(C)C)cc1 | – | – | > 50 µM | – | 29.1% | 0.709 | –
Cc1ncsc1-c1ccc([C@H](C)NC(=O)[C@@H]2C[C@@H](O)CN2C(=O)[C@@H](NC(=O)CCCCc2cn(CCCCCn3c(=O)c(-c4ccc(Cl)cc4Cl)cc4cnc(NC5CC5)nc43)nn2)C(C)(C)C)cc1 | – | – | 5.47 µM | – | 57% | 0.43 | 27.4%
CNc1ncc2cc(-c3ccc(Cl)cc3Cl)c(=O)n(CCCCn3cc(CNc4cccc5c4C(=O)N(C4CCC(=O)NC4=O)C5=O)nn3)c2n1 (stereo not given) | 2.8% | – | > 50 µM | 0.583 | – | – | –
Cc1ncsc1-c1ccc([C@H](C)NC(=O)[C@@H]2C[C@@H](O)CN2C(=O)[C@@H](NC(=O)CCCCc2cn(CCCCn3c(=O)c(-c4ccc(Cl)cc4Cl)cc4cnc(NC5CC5)nc43)nn2)C(C)(C)C)cc1 | – | – | > 50 µM | – | 14.4% | 0.856 | –
O=C1CCC(N2C(=O)c3cccc(NCc4cn(CCOCCOCCOCCn5c(=O)c(-c6ccc(Cl)cc6Cl)cc6cnc(NC7CC7)nc65)nn4)c3C2=O)C(=O)N1 (stereo not given) | -6.9% | – | > 50 µM | 1.07 | – | – | –
O=C1CCC(N2C(=O)c3cccc(NCc4cn(CCCCCCCn5c(=O)c(-c6ccc(Cl)cc6Cl)cc6cnc(NC7CC7)nc65)nn4)c3C2=O)C(=O)N1 (stereo not given) | 56.1% | 18.3% | 7.35 µM | 0.44 | – | – | –
Cc1ncsc1-c1ccc([C@H](C)NC(=O)[C@@H]2C[C@@H](O)CN2C(=O)[C@@H](NC(=O)CCCCc2cn(CCCCCCCn3c(=O)c(-c4ccc(Cl)cc4Cl)cc4cnc(NC5CC5)nc43)nn2)C(C)(C)C)cc1 | – | – | > 50 µM | – | 18.2% | 0.812 | –
O=C1CCC(N2C(=O)c3cccc(NCc4cn(CCCCCCn5c(=O)c(-c6ccc(Cl)cc6Cl)cc6cnc(NC7CC7)nc65)nn4)c3C2=O)C(=O)N1 (stereo not given) | 34.7% | – | 32.1 µM | 0.761 | – | – | –
Cc1ncsc1-c1ccc([C@H](C)NC(=O)[C@@H]2C[C@@H](O)CN2C(=O)[C@@H](NC(=O)CCc2cn(CCOCCOCCn3c(=O)c(-c4ccc(Cl)cc4Cl)cc4cnc(NC5CC5)nc43)nn2)C(C)(C)C)cc1 | – | – | > 50 µM | – | 3.8% | 0.962 | –
Cc1ncsc1-c1ccc([C@H](C)NC(=O)[C@@H]2C[C@@H](O)CN2C(=O)[C@@H](NC(=O)CCCCc2cn(CCCCCCn3c(=O)c(-c4ccc(Cl)cc4Cl)cc4cnc(NC5CC5)nc43)nn2)C(C)(C)C)cc1 | – | – | > 50 µM | – | 24.6% | 0.754 | –
Cc1ncsc1-c1ccc([C@H](C)NC(=O)[C@@H]2C[C@@H](O)CN2C(=O)[C@@H](NC(=O)CCc2cn(CCCCCn3c(=O)c(-c4ccc(Cl)cc4Cl)cc4cnc(NC5CC5)nc43)nn2)C(C)(C)C)cc1 | – | – | > 50 µM | – | 17.4% | 0.826 | –
CNc1ncc2cc(-c3ccc(Cl)cc3Cl)c(=O)n(CCCCCn3cc(CNc4cccc5c4C(=O)N(C4CCC(=O)NC4=O)C5=O)nn3)c2n1 (stereo not given) | -5.4% | – | > 50 µM | 0.97 | – | – | –
Cc1ncsc1-c1ccc([C@H](C)NC(=O)[C@@H]2C[C@@H](O)CN2C(=O)[C@@H](NC(=O)CCc2cn(CCCCCCn3c(=O)c(-c4ccc(Cl)cc4Cl)cc4cnc(NC5CC5)nc43)nn2)C(C)(C)C)cc1 | – | – | 3.78 µM | – | 67.1% | 0.329 | 39.1%

SMILES | Activity [1] | Activity [2] | IC50 (MDA-MB-231) | fold change (FC) [3] | Activity [4] | fold change (FC) [5] | Activity [6]
Cc1ncsc1-c1ccc([C@H](C)NC(=O)[C@@H]2C[C@@H](O)CN2C(=O)[C@@H](NC(=O)CCCCc2cn(CCOCCOCCOCCn3c(=O)c(-c4ccc(Cl)cc4Cl)cc4cnc(NC5CC5)nc43)nn2)C(C)(C)C)cc1 | – | – | > 50 µM | – | 12% | 0.88 | –
Cc1ncsc1-c1ccc([C@H](C)NC(=O)[C@@H]2C[C@@H](O)CN2C(=O)[C@@H](NC(=O)CCCc2cn(CCCCn3c(=O)c(-c4ccc(Cl)cc4Cl)cc4cnc(NC5CC5)nc43)nn2)C(C)(C)C)cc1 | – | – | 33.2 µM | – | 32.1% | 0.679 | –
Cc1ncsc1-c1ccc([C@H](C)NC(=O)[C@@H]2C[C@@H](O)CN2C(=O)[C@@H](NC(=O)CCc2cn(CCOCCn3c(=O)c(-c4ccc(Cl)cc4Cl)cc4cnc(NC5CC5)nc43)nn2)C(C)(C)C)cc1 | – | – | 16.9 µM | – | 44.3% | 0.557 | 15.7%
Cc1ncsc1-c1ccc([C@H](C)NC(=O)[C@@H]2C[C@@H](O)CN2C(=O)[C@@H](NC(=O)CCCc2cn(CCCCCn3c(=O)c(-c4ccc(Cl)cc4Cl)cc4cnc(NC5CC5)nc43)nn2)C(C)(C)C)cc1 | – | – | 16.3 µM | – | 45.5% | 0.545 | 11.9%
O=C1CCC(N2C(=O)c3cccc(NCc4cn(CCCCn5c(=O)c(-c6ccc(Cl)cc6Cl)cc6cnc(NC7CC7)nc65)nn4)c3C2=O)C(=O)N1 (stereo not given) | 23.9% | – | 34.6 µM | 0.761 | – | – | –
Cc1ncsc1-c1ccc([C@H](C)NC(=O)[C@@H]2C[C@@H](O)CN2C(=O)[C@@H](NC(=O)CCCc2cn(CCOCCOCCOCCn3c(=O)c(-c4ccc(Cl)cc4Cl)cc4cnc(NC5CC5)nc43)nn2)C(C)(C)C)cc1 | – | – | > 50 µM | – | 5.1% | 0.949 | –
CNc1ncc2cc(-c3ccc(Cl)cc3Cl)c(=O)n(CCCCCCn3cc(CNc4cccc5c4C(=O)N(C4CCC(=O)NC4=O)C5=O)nn3)c2n1 (stereo not given) | 41.7% | 15.3% | 25.8 µM | 0.653 | – | – | –
Cc1ncsc1-c1ccc([C@H](C)NC(=O)[C@@H]2C[C@@H](O)CN2C(=O)[C@@H](NC(=O)CCCc2cn(CCOCCn3c(=O)c(-c4ccc(Cl)cc4Cl)cc4cnc(NC5CC5)nc43)nn2)C(C)(C)C)cc1 | – | – | 27.1 µM | – | 31.7% | 0.683 | –
Cc1ncsc1-c1ccc([C@H](C)NC(=O)[C@@H]2C[C@@H](O)CN2C(=O)[C@@H](NC(=O)CCCCc2cn(CCOCCn3c(=O)c(-c4ccc(Cl)cc4Cl)cc4cnc(NC5CC5)nc43)nn2)C(C)(C)C)cc1 | – | – | 35.8 µM | – | 30.1% | 0.699 | –
O=C1CCC(N2C(=O)c3cccc(NCc4cn(CCOCCn5c(=O)c(-c6ccc(Cl)cc6Cl)cc6cnc(NC7CC7)nc65)nn4)c3C2=O)C(=O)N1 (stereo not given) | 1% | – | > 50 µM | 0.99 | – | – | –
CNc1ncc2cc(-c3ccc(Cl)cc3Cl)c(=O)n(CCOCCOCCn3cc(CNc4cccc5c4C(=O)N(C4CCC(=O)NC4=O)C5=O)nn3)c2n1 (stereo not given) | 4.1% | – | > 50 µM | 0.959 | – | – | –
CNc1ncc2cc(-c3ccc(Cl)cc3Cl)c(=O)n(CCOCCn3cc(CNc4cccc5c4C(=O)N(C4CCC(=O)NC4=O)C5=O)nn3)c2n1 (stereo not given) | 8.2% | – | > 50 µM | 0.918 | – | – | –
Cc1ncsc1-c1ccc([C@H](C)NC(=O)[C@@H]2C[C@@H](O)CN2C(=O)[C@@H](NC(=O)CCCc2cn(CCOCCOCCn3c(=O)c(-c4ccc(Cl)cc4Cl)cc4cnc(NC5CC5)nc43)nn2)C(C)(C)C)cc1 | – | – | > 50 µM | – | 2.7% | 0.973 | –
Cc1ncsc1-c1ccc([C@H](C)NC(=O)[C@@H]2C[C@@H](O)CN2C(=O)[C@@H](NC(=O)CCCc2cn(CCCCCCCn3c(=O)c(-c4ccc(Cl)cc4Cl)cc4cnc(NC5CC5)nc43)nn2)C(C)(C)C)cc1 | – | – | 2.01 µM | – | 68.2% | 0.318 | 41%
Cc1ncsc1-c1ccc([C@H](C)NC(=O)[C@@H]2C[C@@H](O)CN2C(=O)[C@@H](NC(=O)CCc2cn(CCCCn3c(=O)c(-c4ccc(Cl)cc4Cl)cc4cnc(NC5CC5)nc43)nn2)C(C)(C)C)cc1 | – | – | > 50 µM | – | 10.4% | 0.896 | –
CNc1ncc2cc(-c3ccc(Cl)cc3Cl)c(=O)n(CCOCCOCCOCCn3cc(CNc4cccc5c4C(=O)N(C4CCC(=O)NC4=O)C5=O)nn3)c2n1 (stereo not given) | 1.2% | – | > 50 µM | 0.988 | – | – | –
Cc1ncsc1-c1ccc([C@H](C)NC(=O)[C@@H]2C[C@@H](O)CN2C(=O)[C@@H](NC(=O)CCCCc2cn(CCOCCOCCn3c(=O)c(-c4ccc(Cl)cc4Cl)cc4cnc(NC5CC5)nc43)nn2)C(C)(C)C)cc1 | – | – | > 50 µM | – | -4.8% | 1.05 | –
